Assay results: ChEMBL document CHEMBL1201862, “PubChem BioAssay data set” (2004)
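1) Cells in 96-well plates. 2) Compound, 48 h, 5 concentrations. 3) Linear interpolation between surrounding doses. 4) Unreached endpoint = highest concentration. Abbreviation: GI50, concentration required for 50% inhibition of growth.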 Activity calls are given as the source filed them. Cut-off read from the data, not from the text of the source: active = GI50 up to about 1.1 µM and inactive = higher.

Tests used:
Assay in all cases: NCI anticancer screen, dose series, 48 h
UO-31 = tested on: UO-31
MOLT-4 = tested on: MOLT-4
HT-29 = tested on: HT-29
SN12C = tested on: SN12C
Hs-578T = tested on: Hs-578T
OVCAR-8 = tested on: OVCAR-8
RXF 393 = tested on: RXF 393
RPMI-8226 = tested on: RPMI-8226
A498 = tested on: A498
HCT-15 = tested on: HCT-15
SNB-19 = tested on: SNB-19
SK-MEL-2 = tested on: SK-MEL-2
M14 = tested on: M14
LOX IMVI = tested on: LOX IMVI
SK-MEL-28 = tested on: SK-MEL-28
U-251 = tested on: U-251
UACC-62 = tested on: UACC-62
BT-549 = tested on: BT-549
NCI-H226 = tested on: NCI-H226
OVCAR-3 = tested on: OVCAR-3
CCRF-CEM = tested on: CCRF-CEM
SR = tested on: SR
COLO 205 = tested on: COLO 205
A549 = tested on: A549
UACC-257 = tested on: UACC-257
OVCAR-5 = tested on: OVCAR-5
SK-MEL-5 = tested on: SK-MEL-5
SF-539 = tested on: SF-539
SNB-75 = tested on: SNB-75
KM12 = tested on: KM12
SK-OV-3 = tested on: SK-OV-3
CAKI-1 = tested on: CAKI-1
HL-60 = tested on: HL-60
HOP-62 = tested on: HOP-62
DU-145 = tested on: DU-145
MCF7 = tested on: MCF7
K562 = tested on: K562
SF-295 = tested on: SF-295
EKVX = tested on: EKVX
HCT-116 = tested on: HCT-116
NCI/ADR-RES = tested on: NCI/ADR-RES
PC-3 = tested on: PC-3
TK-10 = tested on: TK-10
NCI-H522 = tested on: NCI-H522
MDA-MB-435 = tested on: MDA-MB-435
IGROV-1 = tested on: IGROV-1
NCI-H460 = tested on: NCI-H460
OVCAR-4 = tested on: OVCAR-4
SW-620 = tested on: SW-620
Malme-3M = tested on: Malme-3M
MDA-N = tested on: MDA-N
T47D = tested on: T47D
SF-268 = tested on: SF-268
786-0 = tested on: 786-0
NCI-H23 = tested on: NCI-H23
ACHN = tested on: ACHN
HOP-92 = tested on: HOP-92

With `Cc1cc(C)nc(NC(=S)Nc2ccccc2Cl)c1` the GI50 (UO-31) was > 100 µM (inactive), the GI50 (MOLT-4) was > 100 µM (inactive) and the GI50 (HT-29) was > 100 µM (inactive). The GI50 (SN12C) was > 100 µM (inactive), the GI50 (Hs-578T) was > 100 µM (inactive) and the GI50 (OVCAR-8) was > 100 µM (inactive). The GI50 (RXF 393) was > 100 µM (inactive), the GI50 (RPMI-8226) was > 100 µM (inactive) and the GI50 (A498) was > 100 µM (inactive). For the same molecule, the GI50 (HCT-15) was > 100 µM, the GI50 (SNB-19) was > 100 µM (inactive) and the GI50 (SK-MEL-2) was > 100 µM (inactive). The GI50 (M14) was > 100 µM (inactive), the GI50 (LOX IMVI) was > 100 µM (inactive) and the GI50 (SK-MEL-28) was > 100 µM (inactive). The GI50 (U-251) was > 100 µM (inactive), the GI50 (UACC-62) was > 100 µM (inactive) and the GI50 (BT-549) was > 100 µM (inactive). For the same molecule, the GI50 (NCI-H226) was > 100 µM (inactive), the GI50 (OVCAR-3) was > 100 µM (inactive) and the GI50 (CCRF-CEM) was > 100 µM (inactive). For the same molecule, the GI50 (SR) was > 100 µM (inactive), the GI50 (COLO 205) was > 100 µM (inactive) and the GI50 (A549) was > 100 µM (inactive). The GI50 (UACC-257) was > 100 µM (inactive), the GI50 (OVCAR-5) was > 100 µM (inactive) and the GI50 (SK-MEL-5) was > 100 µM (inactive). The GI50 (SF-539) was > 100 µM (inactive), the GI50 (SNB-75) was 73.1 µM (inactive) and the GI50 (KM12) was > 100 µM (inactive). For the same molecule, the GI50 (SK-OV-3) was > 100 µM (inactive), the GI50 (CAKI-1) was > 100 µM (inactive) and the GI50 (HL-60) was > 100 µM (inactive). For the same molecule, the GI50 (HOP-62) was > 100 µM (inactive), the GI50 (DU-145) was > 100 µM (inactive) and the GI50 (MCF7) was > 100 µM (inactive). The GI50 (K562) was > 100 µM (inactive), the GI50 (SF-295) was > 100 µM (inactive) and the GI50 (EKVX) was > 100 µM (inactive). The GI50 (HCT-116) was > 100 µM (inactive), the GI50 (NCI/ADR-RES) was > 100 µM (inactive) and the GI50 (PC-3) was > 100 µM (inactive). For the same molecule, the GI50 (TK-10) was > 100 µM (inactive), the GI50 (NCI-H522) was > 100 µM (inactive) and the GI50 (MDA-MB-435) was > 100 µM (inactive). The GI50 (IGROV-1) was > 100 µM (inactive), the GI50 (NCI-H460) was > 100 µM (inactive) and the GI50 (OVCAR-4) was > 100 µM (inactive). For the same molecule, the GI50 (SW-620) was > 100 µM (inactive), the GI50 (Malme-3M) was > 100 µM (inactive) and the GI50 (MDA-N) was > 100 µM (inactive). The GI50 (T47D) was > 100 µM (inactive), the GI50 (SF-268) was > 100 µM (inactive) and the GI50 (786-0) was > 100 µM (inactive).

With `COc1cc(Nc2cnc3cc(F)c(F)cc3n2)cc(OC)c1` the GI50 (UO-31) was > 100 µM (inactive), the GI50 (MOLT-4) was > 100 µM (inactive) and the GI50 (HT-29) was > 100 µM (inactive). For the same molecule, the GI50 (SN12C) was > 100 µM (inactive), the GI50 (Hs-578T) was 37.7 µM (inactive) and the GI50 (OVCAR-8) was > 100 µM (inactive). The GI50 (RXF 393) was 12.2 µM (inactive), the GI50 (A498) was 53.6 µM (inactive) and the GI50 (HCT-15) was > 100 µM. The GI50 (SNB-19) was 26.2 µM (inactive), the GI50 (SK-MEL-2) was > 100 µM (inactive) and the GI50 (M14) was > 100 µM (inactive). The GI50 (LOX IMVI) was 67.3 µM (inactive), the GI50 (NCI-H23) was 20.8 µM (inactive) and the GI50 (SK-MEL-28) was > 100 µM (inactive). For the same molecule, the GI50 (U-251) was 37.9 µM (inactive), the GI50 (ACHN) was > 100 µM (inactive) and the GI50 (UACC-62) was 18.2 µM (inactive). The GI50 (BT-549) was 33.9 µM (inactive), the GI50 (NCI-H226) was > 100 µM (inactive) and the GI50 (OVCAR-3) was > 100 µM (inactive). The GI50 (CCRF-CEM) was > 100 µM (inactive), the GI50 (SR) was > 100 µM (inactive) and the GI50 (COLO 205) was > 100 µM (inactive). For the same molecule, the GI50 (A549) was > 100 µM (inactive), the GI50 (UACC-257) was > 100 µM (inactive) and the GI50 (OVCAR-5) was > 100 µM (inactive). For the same molecule, the GI50 (SK-MEL-5) was > 100 µM (inactive), the GI50 (SF-539) was 71 µM (inactive) and the GI50 (SNB-75) was 18.9 µM (inactive). For the same molecule, the GI50 (HOP-92) was 25.8 µM (inactive), the GI50 (KM12) was > 100 µM (inactive) and the GI50 (SK-OV-3) was 21.3 µM (inactive). For the same molecule, the GI50 (CAKI-1) was > 100 µM (inactive), the GI50 (HL-60) was > 100 µM (inactive) and the GI50 (HOP-62) was 25.9 µM (inactive). The GI50 (DU-145) was > 100 µM (inactive), the GI50 (MCF7) was > 100 µM (inactive) and the GI50 (SF-295) was 36 µM (inactive). For the same molecule, the GI50 (EKVX) was > 100 µM (inactive), the GI50 (HCT-116) was 58.1 µM (inactive) and the GI50 (NCI/ADR-RES) was 90.4 µM (inactive). For the same molecule, the GI50 (PC-3) was > 100 µM (inactive), the GI50 (TK-10) was > 100 µM (inactive) and the GI50 (NCI-H522) was 11.4 µM (inactive). For the same molecule, the GI50 (MDA-MB-435) was > 100 µM (inactive), the GI50 (IGROV-1) was > 100 µM (inactive) and the GI50 (NCI-H460) was > 100 µM (inactive). For the same molecule, the GI50 (OVCAR-4) was > 100 µM (inactive), the GI50 (SW-620) was > 100 µM (inactive) and the GI50 (Malme-3M) was > 100 µM (inactive). For the same molecule, the GI50 (MDA-N) was > 100 µM (inactive), the GI50 (T47D) was > 100 µM (inactive) and the GI50 (SF-268) was 43.7 µM (inactive). The GI50 (786-0) was 37.9 µM (inactive).
